Data from article PMC11110727, “Exploiting thiol-functionalized benzosiloxaboroles for achieving diverse substitution patterns – synthesis, characterization and biological evaluation of promising antibacterial agents” (RSC Medicinal Chemistry, 2024).
In brackets after ≈: the same amount, converted by molar mass. Read-outs that look alike come from different tables or passages of the source.

Tests used:
[1] = test system: Staphylococcus aureus, MSSA and MRSA strains; test: Antibacterial activity against S. aureus strains (text summaries); assay type: cell-based; settings: for MBC / MIC: Staphylococcus aureus; for MBC: lowest MBC values; for Eagle effect (paradoxical growth) during MBC determination: S. aureus ATCC 6538P and five MRSA clinical strains
Procedure: (§1) Direct antimicrobial activity was determined against the following standard strains: (1) Gram-positive cocci: methicillin-sensitive Staphylococcus aureus ATCC 6538P (MSSA), methicillin-resistant S. aureus subsp. aureus ATCC 43300 (MRSA), S. epidermidis ATCC 12228, Enterococcus faecium ATCC 6057, E. faecalis ATCC 29212, Bacillus subtilis ATCC 6633; (2) Gram-negative bacteria from Enterobacteriales order: Klebsiella pneumoniae ATCC 13883, Escherichia coli ATCC 25922, Enterobacter cloacae DSM 6234, Proteus mirabilis ATCC 12453, Serratia marcescens ATCC 13880; (3) Gram-negative non-fermentative rods: Acinetobacter baumannii ATCC 19606, Pseudomonas aeruginosa ATCC 27853, Stenotrophomonas maltophilia ATCC 12714, S. maltophilia ATCC 13637, Burkholderia cepacia ATCC 25416, Bordetella bronchiseptica ATCC 4617; (4) yeasts: Candida albicans ATCC 90028, C. krusei ATCC 6258, C. parapsilosis ATCC 22019, C. tropicalis (Castellani) Berkhout ATCC 750, C. tropicalis IBA 171, C. guilliermondii IBA 155, and Saccharomyces cerevisiae ATCC 9763. Moreover, 5 clinical strains of methicillin-resistant S. aureus were also included: NMI 664 K, NMI 1576 K, NMI 1712 K, NMI 1991 K, and NMI 2541 K. All strains were stored at −80 °C. Prior to testing, each bacterial strain was subcultured twice on tryptic soy agar TSA (bioMerieux) medium and yeast strains on Sabouraud dextrose agar (bioMerieux) for 24–48 h at 30 °C to ensure viability. The antimicrobial activity was evaluated as previously described[26] by the disc-diffusion method and the MIC determination assays according to the EUCAST (ref. [71] and [72]) and CLSI (ref. [53] and [73]) recommendations. Assessment of bactericidal (MBC) and fungicidal (MFC) activities was performed according to the CLSI recommendations.[54,74] The following reference agents were used: fluconazole (in the case of fungi), linezolid (for Gram-positive bacteria), and nitrofurantoin (for Gram-negative rods). The new benzosiloxaboroles were dissolved in DMSO (Sigma).

Gram-negative rods = test: Antibacterial activity against Gram-negative rods with or without PAβN (text summaries); assay type: cell-based; settings: for efflux assay result (MIC with PAβN): Gram-negative rods; for reduction of MIC in the presence of PAβN: Enterobacterales
Procedure: as §1, with “The following reference agents were used: fluconazole (in the case of fungi), linezolid (for Gram-positive bacteria), and nitrofurantoin (for Gram-negative rods).” left out
Considering that the MDR efflux pumps often contribute to Gram-negative rod resistance, the MIC values of studied agents, with or without the pump inhibitor, PAβN (20 μg mL^−1) (Sigma), were determined.[75] The MIC was determined using Mueller–Hinton II broth medium (MHB) (Becton Dickinson) by the broth microdilution method, according to the CLSI guideliness.[53] To minimize the influence of PAβN on the destabilization of bacterial cell covers, the tests were conducted in the presence of 1 mM MgSO4 (Sigma).[76] At least a 4-fold reduction in the MIC value after the addition of PAβN was considered significant.[56,77]

[2] = test system: S. aureus NMI 2541 K MRSA; test: Antibacterial activity against clinical MRSA: MIC/MBC; assay type: cell-based; settings: Staphylococcus aureus
Procedure: as §1

[3] = test system: S. aureus NMI 1712 K MRSA; test: as above; assay type: cell-based; settings: Staphylococcus aureus
Procedure: as §1

S. aureus NMI 664 K MRSA = test: as above; assay type: cell-based; settings: Staphylococcus aureus
Procedure: as §1

[4] = test system: S. aureus NMI 1991 K MRSA; test: as above; assay type: cell-based; settings: Staphylococcus aureus
Procedure: as §1

physchem = test: physchem
Procedure: 0.1 M NaOH in H2O/MeOH (1 : 1 v/v).
The acidity constants of benzosiloxaboroles 1e, 2e, 6, 20 and 22–24 were determined by standard pH titration with 0.05 M aq. NaOH. The measurements were performed using a thermostated (25.0 °C) glass vessel equipped with a magnetic stirrer and a 10 mL burette. Prior to the measurement, the pH glass electrode was calibrated using borax and phosphate buffers. A solution of the analyzed compound (ca. 20–40 mg) in a mixture of MeOH/H2O (v/v 1 : 1, 30 mL) was titrated until the pH of the solution exceeded the value of 12.0.

[5] = both MSSA and MRSA strains, read-out: MIC values against Staphylococcus aureus
[6] = NMI 2541 K MRSA, read-out: MBC (first MBC where Eagle effect)
[7] = NMI 2541 K MRSA, read-out: second MBC (Eagle effect)
[8] = NMI 1712 K MRSA, read-out: MBC (first MBC where Eagle effect)
[9] = NMI 1712 K MRSA, read-out: second MBC (Eagle effect)
[10] = NMI 664 K MRSA, read-out: MBC (first MBC where Eagle effect)
[11] = NMI 664 K MRSA, read-out: second MBC (Eagle effect)
[12] = NMI 1991 K MRSA, read-out: MBC (first MBC where Eagle effect)
[13] = NMI 1991 K MRSA, read-out: second MBC (Eagle effect)
[14] = standard and five clinical MRSA strains (Table 4), read-out: MIC (MRSA)
[15] = MRSA, read-out: MBC (first MBC where Eagle effect)
[16] = MRSA, read-out: second MBC (Eagle effect)

Row | Compound | Eagle effect (paradoxical growth) during MBC determination [1] | MIC [1, 5] [µg/mL] | MBC [2, 6] [µg/mL] | MIC ([2]; NMI 2541 K MRSA, read-out: MIC) [µg/mL] | MBC [3, 8] [µg/mL] | MIC ([3]; NMI 1712 K MRSA, read-out: MIC) [µg/mL] | MBC (S. aureus NMI 664 K MRSA; [10]) [µg/mL] | MIC (S. aureus NMI 664 K MRSA; NMI 664 K MRSA, read-out: MIC) [µg/mL] | MBC [4, 12] [µg/mL] | MIC ([4]; NMI 1991 K MRSA, read-out: MIC) [µg/mL] | pKa (physchem) | other results
1 | C[Si]1(C)OB(O)c2cc(F)c(S)c(F)c21 [Compound 1e, 5,7-Difluoro-6-mercapto-1,1-dimethylbenzo[c][1,2,5]oxasilaborol-3(1H)-ol] | – | – | – | – | – | – | – | – | – | – | – | MBC [1]: 25 to 50 µg/mL (≈ 102 to 203 µM)
2 | C[Si]1(C)OB(O)c2ccc(S)c(F)c21 [Compound 2e, 7-Fluoro-6-mercapto-1,1-dimethylbenzo[c][1,2,5]oxasilaborol-3(1H)-ol] | – | – | – | – | – | – | – | – | – | – | – | MBC [1]: 25 to 50 µg/mL (≈ 110 to 219 µM)
3 | COC(=O)CCSc1ccc2c(c1F)[Si](C)(C)OB2O [Compound 4, Methyl 3-((7-fluoro-3-hydroxy-1,1-dimethyl-1,3-dihydrobenzo[c][1,2,5]oxasilaborol-6-yl)thio)propanoate] | Eagle effect | – | – | – | – | – | – | – | – | – | – | efflux assay result (MIC with PAβN) (Gram-negative rods): actively extruded from bacterial cells
4 | C[Si]1(C)OB(O)c2cc(F)c(SCCC#N)c(F)c21 [Compound 6, 3-((5,7-Difluoro-3-hydroxy-1,1-dimethyl-1,3-dihydrobenzo[c][1,2,5]oxasilaborol-6-yl)thio)propanenitrile] | Eagle effect | 1.56 to 12.5 (≈ 5.21 to 41.8 µM) | 25 (≈ 83.6 µM) | 12.5 (≈ 41.8 µM) | 12.5 (≈ 41.8 µM) | 12.5 (≈ 41.8 µM) | 25 (≈ 83.6 µM) | 12.5 (≈ 41.8 µM) | 25 (≈ 83.6 µM) | 12.5 (≈ 41.8 µM) | 5.2 | MBC [2, 7]: > 400 µg/mL; MBC [3, 9]: > 400 µg/mL; MBC (S. aureus NMI 664 K MRSA; [11]): > 400 µg/mL; MBC [4, 13]: > 400 µg/mL
5 | C[Si]1(C)OB(O)c2cc(F)c(SC3CC(=O)NC3=O)c(F)c21 (stereo not shown) [Compound 12, 3-((5,7-Difluoro-3-hydroxy-1,1-dimethyl-1,3-dihydrobenzo[c][1,2,5]oxasilaborol-6-yl)thio)pyrrolidine-2,5-dione] | – | 1.56 to 12.5 (≈ 4.55 to 36.4 µM) | 200 (≈ 583 µM) | 12.5 (≈ 36.4 µM) | 200 (≈ 583 µM) | 12.5 (≈ 36.4 µM) | 200 (≈ 583 µM) | 12.5 (≈ 36.4 µM) | 100 (≈ 291 µM) | 12.5 (≈ 36.4 µM) | – | reduction of MIC in the presence of PAβN (Gram-negative rods): at least 4 -fold
6 | C[Si]1(C)OB(O)c2ccc(SC3CC(=O)NC3=O)c(F)c21 (stereo not shown) [Compound 13, 3-((7-Fluoro-3-hydroxy-1,1-dimethyl-1,3-dihydrobenzo[c][1,2,5]oxasilaborol-6-yl)thio)pyrrolidine-2,5-dione] | – | – | – | – | – | – | – | – | – | – | – | reduction of MIC in the presence of PAβN (Gram-negative rods): at least 4 -fold
7 | C[Si]1(C)OB(O)c2ccc(SCCS(=O)(=O)c3ccccc3)c(F)c21 [Compound 21, 7-Fluoro-1,1-dimethyl-6-((2-(phenylsulfonyl)ethyl)thio)benzo[c][1,2,5]oxasilaborol-3(1H)-ol] | – | – | – | – | – | – | – | – | – | – | – | efflux assay result (MIC with PAβN) (Gram-negative rods): actively extruded from bacterial cells
8 | CC(=O)CSc1ccc2c(c1F)[Si](C)(C)OB2O [Compound 22, 1-((7-Fluoro-3-hydroxy-1,1-dimethyl-1,3-dihydrobenzo[c][1,2,5]oxasilaborol-6-yl)thio)propan-2-one] | – | 1.56 to 12.5 (≈ 5.49 to 44 µM) | 200 (≈ 704 µM) | 3.12 (≈ 11 µM) | 400 (≈ 1410 µM) | 6.25 (≈ 22 µM) | 200 (≈ 704 µM) | 6.25 (≈ 22 µM) | 200 (≈ 704 µM) | 3.12 (≈ 11 µM) | 6.4 | MIC [1, 14]: 3.12 to 6.25 µg/mL (≈ 11 to 22 µM)
9 | C[Si]1(C)OB(O)c2ccc(SCC(=O)c3ccccc3)c(F)c21 [Compound 23, 2-((7-Fluoro-3-hydroxy-1,1-dimethyl-1,3-dihydrobenzo[c][1,2,5]oxasilaborol-6-yl)thio)-1-phenylethan-1-one] | Eagle effect | 1.56 to 12.5 (≈ 4.51 to 36.1 µM) | 6.25 (≈ 18 µM) | 1.56 (≈ 4.51 µM) | 25 (≈ 72.2 µM) | 3.12 (≈ 9.01 µM) | 3.12 (≈ 9.01 µM) | 3.12 (≈ 9.01 µM) | 3.12 (≈ 9.01 µM) | 1.56 (≈ 4.51 µM) | 6.3 | MIC [1, 14]: 1.56 to 3.12 µg/mL (≈ 4.51 to 9.01 µM); MBC [2, 7]: 200 µg/mL (≈ 578 µM); MBC [3, 9]: 200 µg/mL (≈ 578 µM); MBC (S. aureus NMI 664 K MRSA; [11]): 200 µg/mL (≈ 578 µM); MBC [4, 13]: 200 µg/mL (≈ 578 µM)
10 | CCOP(=O)(OCC)Sc1c(F)cc2c(c1F)[Si](C)(C)OB2O [Compound 24, S-(5,7-Difluoro-3-hydroxy-1,1-dimethyl-1,3-dihydrobenzo[c][1,2,5]oxasilaborol-6-yl) O,O-diethyl phosphorothioate] | Eagle effect | 1.56 to 12.5 (≈ 4.08 to 32.7 µM) | – | – | – | – | – | – | – | – | 4.9 | MIC ([2]; MRSA): 12.5 µg/mL (≈ 32.7 µM); MBC [2, 15]: 12.5 µg/mL (≈ 32.7 µM); MBC [2, 16]: > 400 µg/mL; MIC ([3]; MRSA): 12.5 µg/mL (≈ 32.7 µM); MBC [3, 15]: 25 µg/mL (≈ 65.4 µM); MBC [3, 16]: > 400 µg/mL; MIC (S. aureus NMI 664 K MRSA; MRSA): 6.25 µg/mL (≈ 16.4 µM); MBC (S. aureus NMI 664 K MRSA; [15]): 25 µg/mL (≈ 65.4 µM); MBC (S. aureus NMI 664 K MRSA; [16]): > 400 µg/mL; MIC ([4]; MRSA): 12.5 µg/mL (≈ 32.7 µM); MBC [4, 15]: 12.5 µg/mL (≈ 32.7 µM); MBC [4, 16]: > 400 µg/mL
11 | C[Si]1(C)OB(O)c2ccc(SC(=O)c3ccc(C(F)(F)F)cc3)c(F)c21 [Compound 25, S-(7-Fluoro-3-hydroxy-1,1-dimethyl-1,3-dihydrobenzo[c][1,2,5]oxasilaborol-6-yl) 4-(trifluoromethyl)benzothioate] | – | – | 25 (≈ 62.5 µM) | 12.5 (≈ 31.2 µM) | 25 (≈ 62.5 µM) | 12.5 (≈ 31.2 µM) | 25 (≈ 62.5 µM) | 12.5 (≈ 31.2 µM) | 50 (≈ 125 µM) | 25 (≈ 62.5 µM) | – | MBC [1]: 25 to 50 µg/mL (≈ 62.5 to 125 µM)
